Measurements taken from patent publication US20170037028A1 (BAYER PHARMA AKTIENGESELLSCHAFT, priority 2013, published 2017).
Like-named read-outs stand apart in the source and are kept apart here.

Molecular target: T1, GLUT1 (Homo sapiens, UniProt P11166)
T1 sequence (P11166 1-492): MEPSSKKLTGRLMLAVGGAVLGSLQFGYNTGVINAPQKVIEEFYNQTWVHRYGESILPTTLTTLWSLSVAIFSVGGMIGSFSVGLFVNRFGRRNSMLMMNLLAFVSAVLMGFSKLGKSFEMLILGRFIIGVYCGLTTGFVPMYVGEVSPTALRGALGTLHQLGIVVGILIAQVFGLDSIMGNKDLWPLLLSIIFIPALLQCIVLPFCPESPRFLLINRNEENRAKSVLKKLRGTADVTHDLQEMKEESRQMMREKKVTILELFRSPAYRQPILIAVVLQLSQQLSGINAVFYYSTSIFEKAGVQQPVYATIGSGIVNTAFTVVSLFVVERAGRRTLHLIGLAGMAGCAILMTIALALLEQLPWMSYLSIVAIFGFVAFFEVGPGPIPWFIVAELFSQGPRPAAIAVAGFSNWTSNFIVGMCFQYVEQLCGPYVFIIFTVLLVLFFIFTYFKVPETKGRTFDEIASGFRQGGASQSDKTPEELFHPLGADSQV
Assay: Indirect measurement of GLUT1 activity by quantification of intracellular ATP levels (glucose induced ATP increase)
Format: cell-based
Parameters: endogenous in cells; host or cells: DLD1 or CHO-K1
Settings: read-out: IC50 regarding glucose induced ATP increase (GLUT1 inhibition)
Procedure, shortened: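 Intracellular ATP was measured by CellTiter-Glo luminescence as an indirect readout of transport: glucose-driven for GLUT1, fructose-driven for GLUT2. DLD1 or CHO-K1 cells were used alongside an oxidative phosphorylation inhibitor. Beforehand, cells were held overnight in glucose-free 1% FCS medium to deplete ATP.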

Structure (SMILES)	IC50 [µM]	IC50 (DLD1 cells, 0.1 mM glucose, 1 μM Rotenone, 15 min, CellTiter-Glo ATP readout, IC50 values standardized to cytochalasin B IC50 values) [µM]
Cc1nn(Cc2ccc(CC(=O)NCCO)cc2)c(C)c1NC(=O)c1cc(C(F)(F)F)nc2ccc(Br)cc12 [Example 159, 6-bromo-N-[1-(4-{2-[(2-hydroxyethyl)amino]-2-oxoethyl}benzyl)-3,5-dimethyl-1H-pyrazol-4-yl]-2-(trifluoromethyl)quinoline-4-carboxamide]	0.875	
Cc1nn(Cc2ccncc2)c(C)c1NC(=O)c1cc(C(F)(F)F)nc2ccc(Br)cc12 [Example 160, 6-bromo-N-[3,5-dimethyl-1-(pyridin-4-ylmethyl)-1H-pyrazol-4-yl]-2-(trifluoromethyl)quinoline-4-carboxamide]	0.0143	
Cc1c(NC(=O)c2cc(C(F)(F)F)nc3ccc(Br)cc23)c(C(F)(F)F)nn1Cc1ccc(C#N)cc1 [Example 161, 6-bromo-N-[1-(4-cyanobenzyl)-5-methyl-3-(trifluoromethyl)-1H-pyrazol-4-yl]-2-(trifluoromethyl)quinoline-4-carboxamide]	0.0151	
Cc1nn(Cc2ccc(F)c(F)c2)c(C)c1NC(=O)c1cc(C2CC2)nc2ccc(F)cc12 [Example 162, 2-cyclopropyl-N-[1-(3,4-difluorobenzyl)-3,5-dimethyl-1H-pyrazol-4-yl]-6-fluoroquinoline-4-carboxamide]	0.0248	
Cc1nn(Cc2ccc(F)cc2)c(C)c1NC(=O)c1cc(N(C)C)nc2ccccc12 [Example 163, 2-(dimethylamino)-N-[1-(4-fluorobenzyl)-3,5-dimethyl-1H-pyrazol-4-yl]quinoline-4-carboxamide]	0.025	
Cc1nn(Cc2ccc(O)cc2)c(C)c1NC(=O)c1cc(C(F)(F)F)nc2ccc(Br)cc12 [Example 164, 6-bromo-N-[1-(4-hydroxybenzyl)-3,5-dimethyl-1H-pyrazol-4-yl]-2-(trifluoromethyl)quinoline-4-carboxamide]	0.0271	
Cc1nn(Cc2ccc(F)c(F)c2)c(C)c1NC(=O)c1cc(C(F)(F)F)nc2ccc(Cl)cc12 [Example 165, 6-chloro-N-[1-(3,4-difluorobenzyl)-3,5-dimethyl-1H-pyrazol-4-yl]-2-(trifluoromethyl)quinoline-4-carboxamide]	0.0304	
Cc1nn(Cc2ccc(F)cc2)c(C)c1NC(=O)c1cc(C(F)(F)F)nc2ccc(-c3ccccc3)cc12 [Example 166, N-[1-(4-fluorobenzyl)-3,5-dimethyl-1H-pyrazol-4-yl]-6-phenyl-2-(trifluoromethyl)quinoline-4-carboxamide]	0.0411	
Cc1c(NC(=O)c2cc(C(F)(F)F)nc3c(Cl)cc(Cl)cc23)c(C(F)(F)F)nn1Cc1ccc(C#N)cc1 [Example 167, 6,8-dichloro-N-[1-(4-cyanobenzyl)-5-methyl-3-(trifluoromethyl)-1H-pyrazol-4-yl]-2-(trifluoromethyl)quinoline-4-carboxamide]	0.0462	
Cc1nn(Cc2ccc(F)c(F)c2)c(C)c1NC(=O)c1cc(C(F)(F)F)nc2cc(F)ccc12 [Example 168, N-[1-(3,4-difluorobenzyl)-3,5-dimethyl-1H-pyrazol-4-yl]-7-fluoro-2-(trifluoromethyl)quinoline-4-carboxamide]	0.0478	
Cc1nn(Cc2ccc(C#N)cc2)c(C)c1NC(=O)c1cc(C(F)(F)F)nc2cc(F)c(F)cc12 [Example 169, N-[1-(4-cyanobenzyl)-3,5-dimethyl-1H-pyrazol-4-yl]-6,7-difluoro-2-(trifluoromethyl)quinoline-4-carboxamide]	0.0505	
Cc1nn(CC2CCCCC2)c(C)c1NC(=O)c1cc(C(F)(F)F)nc2ccc(Br)cc12 [Example 170, 6-bromo-N-[1-(cyclohexylmethyl)-3,5-dimethyl-1H-pyrazol-4-yl]-2-(trifluoromethyl)quinoline-4-carboxamide]	0.0544	
Cc1nn(Cc2cccnc2)c(C)c1NC(=O)c1cc(C(F)(F)F)nc2ccc(Br)cc12 [Example 171, 6-bromo-N-[3,5-dimethyl-1-(pyridin-3-ylmethyl)-1H-pyrazol-4-yl]-2-(trifluoromethyl)quinoline-4-carboxamide]	0.0571	
CNC(=O)c1cc(C(=O)Nc2c(C)nn(Cc3ccc(F)cc3)c2C)c2ccccc2n1 [Example 172, N^4-[1-(4-fluorobenzyl)-3,5-dimethyl-1H-pyrazol-4-yl]-N^2-methylquinoline-2,4-dicarboxamide]	0.0591	
Cc1nn(Cc2ccc(F)c(F)c2)c(C)c1NC(=O)c1cc(C(F)(F)F)nc2cccc(F)c12 [Example 173, N-[1-(3,4-difluorobenzyl)-3,5-dimethyl-1H-pyrazol-4-yl]-5-fluoro-2-(trifluoromethyl)quinoline-4-carboxamide]	0.0652	
Cc1nn(Cc2ccc(F)c(F)c2)c(C)c1NC(=O)c1cc(C(F)(F)F)nc2ccc(F)cc12 [Example 174, N-[1-(3,4-difluorobenzyl)-3,5-dimethyl-1H-pyrazol-4-yl]-6-fluoro-2-(trifluoromethyl)quinoline-4-carboxamide]	0.0696	
Cc1nn(Cc2ccccc2C#N)c(C)c1NC(=O)c1cc(C(F)(F)F)nc2cc(F)c(F)cc12 [Example 175, N-[1-(2-cyanobenzyl)-3,5-dimethyl-1H-pyrazol-4-yl]-6,7-difluoro-2-(trifluoromethyl)quinoline-4-carboxamide]	0.0707	
CCN(C(=O)c1cc(C(F)(F)F)nc2ccc(Br)cc12)c1c(C)nn(Cc2ccc(F)cc2)c1C [Example 176, 6-bromo-N-ethyl-N-[1-(4-fluorobenzyl)-3,5-dimethyl-1H-pyrazol-4-yl]-2-(trifluoromethyl)quinoline-4-carboxamide]	0.0722	
Cc1nn(Cc2ccc(F)c(F)c2)c(C)c1NC(=O)c1cc(C(F)(F)F)nc2cc(F)c(F)cc12 [Example 177, N-[1-(3,4-difluorobenzyl)-3,5-dimethyl-1H-pyrazol-4-yl]-6,7-difluoro-2-(trifluoromethyl)quinoline-4-carboxamide]	0.0739	
CNC(=O)c1cc(C(=O)Nc2c(C(F)(F)F)nn(Cc3ccc(F)cc3)c2C)c2ccccc2n1 [Example 178, N^4-[1-(4-fluorobenzyl)-5-methyl-3-(trifluoromethyl)-1H-pyrazol-4-yl]-N2-methylquinoline-2,4-dicarboxamide]	0.0785	
Cc1c(NC(=O)c2cc(C(F)(F)F)nc3ccc(Br)cc23)c(C(F)(F)F)nn1Cc1ccc(F)cc1F [Example 179, 6-bromo-N-[1-(2,4-difluorobenzyl)-5-methyl-3-(trifluoromethyl)-1H-pyrazol-4-yl]-2-(trifluoromethyl)quinoline-4-carboxamide]	0.0785	
Cc1nn(Cc2ccc(Cl)s2)c(C)c1NC(=O)c1cc(C(F)(F)F)nc2ccc(Br)cc12 [Example 180, 6-bromo-N-{1-[(5-chlorothiophen-2-yl)methyl]-3,5-dimethyl-1H-pyrazol-4-yl}-2-(trifluoromethyl)quinoline-4-carboxamide]	0.0937	
Cc1nn(Cc2ccc(F)cc2)c(C)c1NC(=O)c1cc(C(F)(F)F)nc2ccccc12 [Example 181, N-[1-(4-fluorobenzyl)-3,5-dimethyl-1H-pyrazol-4-yl]-2-(trifluoromethyl)quinoline-4-carboxamide]		0.0938
Cc1c(NC(=O)c2cc(C(F)(F)F)nc3cc(F)c(F)cc23)c(C(F)(F)F)nn1Cc1ccc(C#N)cc1 [Example 182, N-[1-(4-cyanobenzyl)-5-methyl-3-(trifluoromethyl)-1H-pyrazol-4-yl]-6,7-difluoro-2-(trifluoromethyl)quinoline-4-carboxamide]	0.101	
Cc1nn(Cc2ccc(C#N)nc2)c(C)c1NC(=O)c1cc(C(F)(F)F)nc2cc(F)c(F)cc12 [Example 183, N-{1-[(6-cyanopyridin-3-yl)methyl]-3,5-dimethyl-1H-pyrazol-4-yl}-6,7-difluoro-2-(trifluoromethyl)quinoline-4-carboxamide]	0.107	
Cc1nn(Cc2ccc(F)cc2)c(C)c1NC(=O)c1ccnc2ccc(Br)cc12 [Example 184, 6-bromo-N-[1-(4-fluorobenzyl)-3,5-dimethyl-1H-pyrazol-4-yl]quinoline-4-carboxamide]	0.11	
Cc1cc(C(=O)Nc2c(C)nn(Cc3ccc(F)c(F)c3)c2C)c2cc(Br)ccc2n1 [Example 185, 6-bromo-N-[1-(3,4-difluorobenzyl)-3,5-dimethyl-1H-pyrazol-4-yl]-2-methylquinoline-4-carboxamide]	0.122	
Cc1ccc2nc(C)cc(C(=O)Nc3c(C)nn(Cc4ccc(F)c(Cl)c4)c3C)c2c1 [Example 186, N-[1-(3-chloro-4-fluorobenzyl)-3,5-dimethyl-1H-pyrazol-4-yl]-2,6-dimethylquinoline-4-carboxamide]	0.126	
Cc1nn(Cc2ccn(C)n2)c(C)c1NC(=O)c1cc(C(F)(F)F)nc2ccc(Br)cc12 [Example 187, 6-bromo-N-{3,5-dimethyl-1-[(1-methyl-1H-pyrazol-3-yl)methyl]-1H-pyrazol-4-yl}-2-(trifluoromethyl)quinoline-4-carboxamide]	0.131	
Cc1ccc2nc(C)cc(C(=O)Nc3c(C(F)(F)F)nn(Cc4ccc(C#N)cc4)c3C)c2c1 [Example 188, N-[1-(4-cyanobenzyl)-5-methyl-3-(trifluoromethyl)-1H-pyrazol-4-yl]-2,6-dimethylquinoline-4-carboxamide]	0.161	
